Results from patent publication US12594282B2, “Use of small molecule compounds in the treatment of diseases mediated by lung epithelial cell injury and/or vascular endothelial cell injury” (Guangzhou Cellprotek Pharmaceutical Co., Ltd., priority 2020, dated 2026).

Key:
[1] = test system: PFKFB3; experiment: Glutamate-induced PFKFB3 expression in primary cerebellar granule neurons (Western blot); assay type: cell-based, mice; settings: 10 μM, pre-incubation 20 mins; 200 μM glutamate for 5 mins and 15 mins
Method: The cells were obtained from SD P7-8 neonatal mice. The cerebellum was taken, and the meninges and blood vessels were removed using microtweezers; the isolated cerebellar tissue was transferred to another dish containing dissection solution. The tissue was cut into pieces as small as possible using a tissue scissor. Digestion: The tissue in pieces was added into 7 mL of 0.25% trypsin digestive solution with a pipet, and was digested at 37° C. for 15 mins; the bench surface was cleaned and the instruments were washed. The container was turned upside down several times every five minutes to bring the tissue into better contact with the digestive solution. End of digestion: After the digestion, it can be seen that the tissue was sticked together and suspended in the liquid due to cell disruption and release of DNA. The digestion was terminated by adding 3 mL of […] 10% FBS DMEM medium. The container was turned upside down several times, and it can be observed that the remaining tissue dispersed due to DNA hydrolysis. Centrifugation was performed at 1000 rpm for 5 mins. As much supernatant as possible was carefully removed. Collection of single cell suspension: 7 mL of DNase-containing 10% FBS DMEM medium was taken with a pipet, by which the tissue pellet was gently pipeted. […] The cells were counted with a hand-held cell counter, and the seeding density was 4.0-5.0×10^5 cells/mL. […]

[2] = test system: NR4A3; experiment: NR4A3/CD31 immunofluorescence of lung tissue, acute hypobaric hypoxia; assay type: in vivo, Macaca fascicularis
Method: Paraffin sections of Macaca fascicularis lung tissue, include 3 in the normal control group (normobaric normoxia, NN), 5 in the acute hypobaric hypoxia treatment group (hypobaric hypoxia, HH), and 5 in the acute hypobaric hypoxia+YC-6 treatment group (HH+YC-6).
The paraffin sections were placed in a 65° C. oven for 30 minutes, and then quickly transferred to 100% xylene for dewaxing, and then subjected to rehydration according to the regular process (100% xylene, 5 min—100% xylene, 2 min—100% xylene, 2 min—100% ethanol, 1 min—100% ethanol, 1 min—95% ethanol, 1 min—90% ethanol, 1 min—B0% ethanol, 1 min—70% ethanol, 1 min—50% ethanol, 1 min—distilled water, 1 min×3), and then EDTA antigen retrieval solution (microwave heating) was used for antigen retrieval. After the retrieval, it was naturally cooled to room temperature, and then washed three times with PBS for 5 minutes each time. The residual PBS on the tissue section was removed. A circle was drew around the tissue with an immunohistochemical pen, and then the corresponding primary antibody diluted in DAKO antibody diluent was added to the tissue to make it completely cover the tissue. The tissue section was incubated overnight in a humidified chamber at 4° C. Then it was washed 3 times with PBS for 5 minutes each time. […]

C[C@@]12CCCC1C1C[C@@H](O)[C@]3(O)C[C@@H](O)CC[C@]3(C)C1CC2 (stereo partly drawn) [YC-6, 5α-androst-3β,5,6β-triol]
glutamate-induced up-regulation of intracellular PFKFB3 expression [1]: significantly inhibited this rapid increase | NR4A3 protein expression in lung tissue endothelial cells ([2]; NR4A3 co-localized with CD31, immunofluorescence): significantly increased the protein expression of NR4A3 | expression of vascular endothelial cell marker CD31 in lung tissue ([2]; immunofluorescence): inhibited the down-regulation of the expression of vascular endothelial cell marker CD31
